3 compounds from ChEMBL document CHEMBL1201862, “PubChem BioAssay data set” (2004) can be followed below.

Activity calls are given as the source filed them.

The target of one assay is Genome polyprotein (dengue virus type 2, UniProt P29990). In words: flavivirus cap methylation enzyme inhibition – biochemical, confirmation dose response, primary screen (AID 588689). It is filed as functional.
Assay [1] can be described thus: Luminescence Cell-Based Dose Retest to Confirm Inhibitors of Cancer Stem Cells. [Related pubchem assays (depositor defined):AID2717, AID2721]. It is filed as functional. As to conditions: Homo sapiens.
In assay [2] the target is T1, High affinity choline transporter 1 (Homo sapiens, UniProt Q9GZV3).
T1 sequence (Q9GZV3 whole entry): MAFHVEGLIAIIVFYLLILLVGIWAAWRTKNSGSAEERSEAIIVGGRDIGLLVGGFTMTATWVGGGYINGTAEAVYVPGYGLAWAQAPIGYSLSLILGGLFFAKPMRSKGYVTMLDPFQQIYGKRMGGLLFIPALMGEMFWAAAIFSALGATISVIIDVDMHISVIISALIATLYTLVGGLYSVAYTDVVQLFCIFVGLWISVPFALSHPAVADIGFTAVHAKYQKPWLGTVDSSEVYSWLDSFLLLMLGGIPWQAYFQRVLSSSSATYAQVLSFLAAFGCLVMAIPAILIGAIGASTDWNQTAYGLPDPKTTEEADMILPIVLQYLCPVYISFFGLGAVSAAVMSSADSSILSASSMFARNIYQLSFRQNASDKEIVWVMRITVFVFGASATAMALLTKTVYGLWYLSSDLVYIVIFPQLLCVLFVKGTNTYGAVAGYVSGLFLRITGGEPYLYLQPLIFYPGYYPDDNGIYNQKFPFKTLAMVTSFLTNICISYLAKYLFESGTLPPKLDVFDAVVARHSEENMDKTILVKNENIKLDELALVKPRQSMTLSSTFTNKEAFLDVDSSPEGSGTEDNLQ
The assay is described as follows: human choline transporter blockers, potency – cell-based, 10-point CRC, membrane potential dye, dose response (AID 588401).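 Further: membrane potential dye fluorescence of choline-evoked depolarization via CHT.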 It is filed as functional.

The next assay relates to Vero. In words: viability of Vero cells under compound – cytotoxicity control for flavivirus capping enzyme inhibitors (AID 588742). In kind it is functional. The settings on record: Chlorocebus sabaeus.
Assay [3] concerns the target T1, High affinity choline transporter 1. In words: human choline transporter blockers, potency – cell-based, 5-point CRC, membrane potential dye, dose response (AID 504840). In kind it is functional.
Assay [4] addresses Melanin-concentrating hormone receptor 1 (Homo sapiens, UniProt Q99705). In words: Late-stage fluorescence-based counterscreen for antagonists of the G-protein coupled receptor 7 (GPR7): cell-based dose response assay to identify antagonists of the melanin-concentrating hormone receptor 1 (MCHR1) Set 6. It is filed as functional. Background: Counterscreens check selectivity or assay interference.

For assay [5], the target named is T2, Neuropeptides B/W receptor type 1 (Homo sapiens, UniProt P48145).
T2 sequence (P48145 whole entry): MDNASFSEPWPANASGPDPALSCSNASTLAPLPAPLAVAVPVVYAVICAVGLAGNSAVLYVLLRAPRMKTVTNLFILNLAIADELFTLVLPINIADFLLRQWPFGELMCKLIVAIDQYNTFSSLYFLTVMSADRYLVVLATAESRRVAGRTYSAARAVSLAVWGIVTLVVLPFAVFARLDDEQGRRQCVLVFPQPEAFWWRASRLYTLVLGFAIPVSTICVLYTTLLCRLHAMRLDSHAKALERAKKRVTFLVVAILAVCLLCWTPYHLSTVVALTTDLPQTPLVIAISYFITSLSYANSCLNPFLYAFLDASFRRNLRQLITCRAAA
In words: human NPBW1 receptor blockade, IC50 – cell-based, fluorescence, dose response, set 6, late-stage follow-up (AID 588583). It is filed as functional.

Another assay concerns the target Large T antigen (Simian virus 40, UniProt P03070). It is filed as functional, Betapolyomavirus macacae.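 Further: Confirmatory-stage PubChem screen for compounds that inhibit SV40 T antigen.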
The subject of another assay is HeLa. The assay is described as follows: viability loss in HeLa cells – cell-based, 24 h, cherry-picked samples, cytotoxicity control, dose response (AID 504726).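 Further: potency for cytotoxicity as loss of luminescence signal.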 As to conditions: Homo sapiens. In kind it is functional.
In assay [6] the target is T3, Alkaline phosphatase, tissue-nonspecific isozyme (Homo sapiens, UniProt P05186).
T3 sequence (P05186 whole entry): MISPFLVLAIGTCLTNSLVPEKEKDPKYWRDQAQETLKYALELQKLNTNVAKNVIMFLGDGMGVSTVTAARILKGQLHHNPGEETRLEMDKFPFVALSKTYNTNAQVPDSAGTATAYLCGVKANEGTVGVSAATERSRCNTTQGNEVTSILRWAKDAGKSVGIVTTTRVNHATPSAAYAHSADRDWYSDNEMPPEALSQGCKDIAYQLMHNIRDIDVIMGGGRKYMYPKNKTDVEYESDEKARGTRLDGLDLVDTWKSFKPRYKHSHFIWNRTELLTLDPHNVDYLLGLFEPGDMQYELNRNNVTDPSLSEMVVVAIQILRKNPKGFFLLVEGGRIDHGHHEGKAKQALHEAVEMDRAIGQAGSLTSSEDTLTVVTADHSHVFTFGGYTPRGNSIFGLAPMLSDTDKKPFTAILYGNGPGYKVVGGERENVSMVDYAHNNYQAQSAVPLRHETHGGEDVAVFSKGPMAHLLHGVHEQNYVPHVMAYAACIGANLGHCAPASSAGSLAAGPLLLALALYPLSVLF
The assay is described as follows: TNAP enzyme inhibition by screening hits, dose response, selectivity assay for mouse IAP inhibitor project, biochemical, human TNAP, uHTS hits (AID 488906). It is filed as functional.

In assay [7] the target is Eukaryotic translation initiation factor 4E (Mus musculus, UniProt P63073). The assay is described as follows: blockers of eIF4G binding by eIF4E – biochemical, TR-FRET, dose response (AID 855).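 Further: potency for disrupting eIF4E binding to eIF4GI seen as loss of FRET.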 In kind it is functional.
For assay [8], the target named is T4, DNA dC->dU-editing enzyme APOBEC-3G (Homo sapiens, UniProt Q9HC16). The assay is described as follows: inhibition of APOBEC3G ssDNA deamination – biochemical, fluorescence, single-stranded DNA substrate, SAR follow-up (AID 602136). In kind it is functional. As to conditions: read-out: IC50_Mean.
Assay [9] has as its target Intestinal-type alkaline phosphatase (Mus musculus, UniProt P24822). The assay is described as follows: PubChem AID 488785. It is filed as functional.
Assay [10] addresses Intestinal-type alkaline phosphatase (Homo sapiens, UniProt P09923). The assay is described as follows: activation of human intestinal alkaline phosphatase – biochemical, dose response (AID 488873). It is filed as functional.
For assay [11], the target named is T5, DNA dC->dU-editing enzyme APOBEC-3A (Homo sapiens, UniProt P31941). The assay is described as follows: SAR analysis of small molecule inhibitors of APOBEC3A DNA Deaminase via a fluorescence-based single-stranded DNA deaminase assay - Set 2. In kind it is functional. As to conditions: read-out: IC50_Mean.
The next assay addresses ORF 73 (Human herpesvirus 8, UniProt O40947). The assay is described as follows: KSHV LANA DNA-binding disruption – biochemical, fluorescence polarization, cherry-picked samples, dose response (AID 504725).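 Further: fluorescence polarization of a labeled DNA duplex reporting LANA DNA binding; potency is for inhibitors that block LANA binding to the DNA.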 The arrangement: species or system Human gammaherpesvirus 8.
For assay [12], the target named is T5, DNA dC->dU-editing enzyme APOBEC-3A. In words: SAR analysis of small molecule inhibitors of APOBEC3A DNA Deaminase via a fluorescence-based single-stranded DNA deaminase assay. As to conditions: read-out: IC50_Mean. In kind it is functional.
Assay [13] addresses T6, Histone-lysine N-methyltransferase NSD2 (Homo sapiens, UniProt O96028).
T6 sequence (O96028 whole entry): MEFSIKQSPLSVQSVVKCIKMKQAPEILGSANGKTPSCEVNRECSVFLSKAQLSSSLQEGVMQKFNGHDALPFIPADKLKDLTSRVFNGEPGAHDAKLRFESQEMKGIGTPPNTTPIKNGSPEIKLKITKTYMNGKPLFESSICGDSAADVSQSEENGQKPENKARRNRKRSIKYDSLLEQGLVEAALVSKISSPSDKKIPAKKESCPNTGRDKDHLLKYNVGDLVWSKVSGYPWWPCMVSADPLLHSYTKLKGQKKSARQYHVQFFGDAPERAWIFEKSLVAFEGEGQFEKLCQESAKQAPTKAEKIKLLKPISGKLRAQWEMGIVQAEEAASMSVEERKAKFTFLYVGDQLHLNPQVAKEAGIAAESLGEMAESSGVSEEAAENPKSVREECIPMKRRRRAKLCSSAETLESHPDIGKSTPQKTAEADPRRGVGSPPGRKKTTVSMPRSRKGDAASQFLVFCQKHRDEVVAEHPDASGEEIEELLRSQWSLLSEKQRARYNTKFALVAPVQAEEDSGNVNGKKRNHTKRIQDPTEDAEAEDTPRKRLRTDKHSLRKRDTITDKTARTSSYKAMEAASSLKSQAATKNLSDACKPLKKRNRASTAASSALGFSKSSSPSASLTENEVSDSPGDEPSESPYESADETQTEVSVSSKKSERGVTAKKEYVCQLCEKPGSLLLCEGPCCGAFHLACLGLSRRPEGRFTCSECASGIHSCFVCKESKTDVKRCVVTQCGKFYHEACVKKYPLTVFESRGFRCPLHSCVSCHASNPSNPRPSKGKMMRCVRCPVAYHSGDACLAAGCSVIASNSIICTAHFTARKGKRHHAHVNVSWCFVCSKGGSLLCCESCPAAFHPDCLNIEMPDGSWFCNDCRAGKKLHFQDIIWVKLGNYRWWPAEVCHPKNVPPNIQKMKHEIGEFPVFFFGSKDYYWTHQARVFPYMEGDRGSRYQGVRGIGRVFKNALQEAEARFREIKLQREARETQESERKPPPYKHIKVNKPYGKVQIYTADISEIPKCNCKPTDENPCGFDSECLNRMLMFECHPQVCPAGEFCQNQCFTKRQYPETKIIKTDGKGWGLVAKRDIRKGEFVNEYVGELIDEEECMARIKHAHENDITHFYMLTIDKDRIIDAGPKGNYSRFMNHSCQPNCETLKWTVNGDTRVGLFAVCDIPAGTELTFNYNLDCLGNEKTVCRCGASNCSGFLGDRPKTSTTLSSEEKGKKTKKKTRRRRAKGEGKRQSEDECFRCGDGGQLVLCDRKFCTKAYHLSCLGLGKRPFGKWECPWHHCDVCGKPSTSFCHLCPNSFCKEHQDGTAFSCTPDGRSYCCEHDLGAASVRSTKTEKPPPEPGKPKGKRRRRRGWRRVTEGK
It is filed as biochemical.

The target in assay [14] is Induced myeloid leukemia cell differentiation protein Mcl-1 (Homo sapiens, UniProt Q07820). In kind it is functional.
Assay [15] concerns the target T4, DNA dC->dU-editing enzyme APOBEC-3G. In words: SAR analysis of small molecule inhibitors of APOBEC3G DNA Deaminase via a fluorescence-based single-stranded DNA deaminase assay - Set 2. It is filed as functional. As to conditions: read-out: IC50_Mean.
The target of assay [16] is T7, Small ubiquitin-related modifier 1 (Homo sapiens, UniProt P63165). In words: SUMO1 protein-protein binding blockers, potency – biochemical, FRET, dose response (AID 624383). It is filed as functional. As to conditions: read-out: IC50_Mean.
For assay [17], the target named is T8, Small ubiquitin-related modifier 2 (Homo sapiens, UniProt P61956). The assay is described as follows: disruption of SUMO2 interaction with SIM peptide – biochemical, fluorescence polarization, uHTS hits, selectivity assay for SUMO1 interaction inhibitor project, dose response (AID 624385). It is filed as functional. As to conditions: read-out: IC50_Mean. (In fluorescence polarisation assays a small probe gives low polarisation when free and higher when bound to something large.)

Assay [18] has as its target T8, Small ubiquitin-related modifier 2. The assay is described as follows: SUMO2 binding disruption by SUMO1 hits – biochemical, FRET, human SUMO2, uHTS hits, selectivity assay for SUMO1 interaction inhibitor project, dose response (AID 624384). In kind it is functional. As to conditions: read-out: IC50_Mean.
Assay [19] addresses T7, Small ubiquitin-related modifier 1. In words: SUMO1 protein interaction blockers, potency – biochemical, fluorescence polarization, uHTS hits, dose response (AID 624382). It is filed as functional. The settings on record: read-out: IC50_Mean.

T8 sequence (P61956 whole entry): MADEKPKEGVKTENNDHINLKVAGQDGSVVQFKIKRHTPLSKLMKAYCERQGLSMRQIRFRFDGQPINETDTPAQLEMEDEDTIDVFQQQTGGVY
T4 sequence (Q9HC16 whole entry): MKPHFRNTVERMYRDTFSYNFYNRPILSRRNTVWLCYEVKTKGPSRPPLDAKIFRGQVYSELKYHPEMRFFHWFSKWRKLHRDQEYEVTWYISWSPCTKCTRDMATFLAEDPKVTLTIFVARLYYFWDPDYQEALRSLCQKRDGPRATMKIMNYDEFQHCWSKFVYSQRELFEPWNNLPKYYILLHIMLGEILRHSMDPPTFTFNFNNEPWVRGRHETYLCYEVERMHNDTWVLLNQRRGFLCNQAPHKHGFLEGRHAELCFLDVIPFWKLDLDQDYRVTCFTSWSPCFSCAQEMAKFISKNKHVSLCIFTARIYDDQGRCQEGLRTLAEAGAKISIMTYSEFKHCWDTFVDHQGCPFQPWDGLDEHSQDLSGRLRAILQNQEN
T5 sequence (P31941 whole entry): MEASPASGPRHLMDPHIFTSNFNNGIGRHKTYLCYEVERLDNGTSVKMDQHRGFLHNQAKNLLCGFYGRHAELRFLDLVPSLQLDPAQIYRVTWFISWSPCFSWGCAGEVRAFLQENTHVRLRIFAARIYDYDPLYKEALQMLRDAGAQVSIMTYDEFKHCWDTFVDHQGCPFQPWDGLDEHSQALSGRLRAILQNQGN
T7 sequence (P63165 whole entry): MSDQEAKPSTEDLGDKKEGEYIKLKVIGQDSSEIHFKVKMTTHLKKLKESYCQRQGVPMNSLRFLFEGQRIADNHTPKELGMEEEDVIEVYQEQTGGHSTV
ORF 73, sequence (O40947 whole entry): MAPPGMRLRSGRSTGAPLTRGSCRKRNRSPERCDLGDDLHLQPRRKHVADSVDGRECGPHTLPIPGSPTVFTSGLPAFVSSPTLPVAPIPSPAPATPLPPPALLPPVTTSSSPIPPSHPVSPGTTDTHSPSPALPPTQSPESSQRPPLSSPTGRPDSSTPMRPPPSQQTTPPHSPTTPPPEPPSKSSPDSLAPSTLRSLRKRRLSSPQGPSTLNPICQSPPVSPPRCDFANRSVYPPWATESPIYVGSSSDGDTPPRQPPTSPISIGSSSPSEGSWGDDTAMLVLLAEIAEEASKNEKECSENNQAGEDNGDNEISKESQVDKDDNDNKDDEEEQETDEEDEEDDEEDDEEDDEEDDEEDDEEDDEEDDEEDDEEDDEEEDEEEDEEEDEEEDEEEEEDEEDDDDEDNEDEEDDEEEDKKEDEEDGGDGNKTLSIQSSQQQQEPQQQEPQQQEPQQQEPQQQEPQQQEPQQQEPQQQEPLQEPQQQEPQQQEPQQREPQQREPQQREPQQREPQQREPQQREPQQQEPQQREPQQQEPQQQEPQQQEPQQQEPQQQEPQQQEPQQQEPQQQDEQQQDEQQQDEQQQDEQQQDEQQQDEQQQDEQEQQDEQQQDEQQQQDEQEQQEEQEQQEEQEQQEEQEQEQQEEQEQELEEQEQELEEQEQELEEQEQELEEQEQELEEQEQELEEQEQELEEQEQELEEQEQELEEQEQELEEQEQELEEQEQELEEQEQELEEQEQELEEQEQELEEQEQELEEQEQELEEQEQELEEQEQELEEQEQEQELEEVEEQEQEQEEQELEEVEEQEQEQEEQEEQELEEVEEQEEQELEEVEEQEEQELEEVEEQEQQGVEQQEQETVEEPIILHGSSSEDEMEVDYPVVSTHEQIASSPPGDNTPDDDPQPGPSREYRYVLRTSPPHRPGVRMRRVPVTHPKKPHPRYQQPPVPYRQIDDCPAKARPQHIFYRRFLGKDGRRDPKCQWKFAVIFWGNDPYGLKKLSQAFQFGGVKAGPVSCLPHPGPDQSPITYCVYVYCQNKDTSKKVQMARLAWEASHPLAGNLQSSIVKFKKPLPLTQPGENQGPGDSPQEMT
Induced myeloid leukemia cell differentiation protein Mcl-1, sequence (Q07820 whole entry): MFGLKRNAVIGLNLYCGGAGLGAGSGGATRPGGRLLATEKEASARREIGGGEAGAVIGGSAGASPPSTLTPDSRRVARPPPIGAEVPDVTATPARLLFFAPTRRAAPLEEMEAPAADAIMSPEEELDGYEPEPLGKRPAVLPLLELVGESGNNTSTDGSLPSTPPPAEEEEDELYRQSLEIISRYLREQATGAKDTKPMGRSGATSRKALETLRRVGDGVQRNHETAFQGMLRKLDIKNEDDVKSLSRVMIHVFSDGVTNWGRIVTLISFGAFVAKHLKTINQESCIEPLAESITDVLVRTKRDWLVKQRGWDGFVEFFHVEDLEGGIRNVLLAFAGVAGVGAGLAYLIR
Eukaryotic translation initiation factor 4E, sequence (P63073 whole entry): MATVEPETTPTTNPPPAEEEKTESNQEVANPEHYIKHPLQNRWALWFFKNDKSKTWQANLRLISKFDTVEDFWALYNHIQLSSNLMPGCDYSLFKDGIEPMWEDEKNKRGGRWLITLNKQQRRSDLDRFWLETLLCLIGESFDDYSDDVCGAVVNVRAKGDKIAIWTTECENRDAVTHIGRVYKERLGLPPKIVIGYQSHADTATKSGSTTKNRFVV
Large T antigen, sequence (P03070 whole entry): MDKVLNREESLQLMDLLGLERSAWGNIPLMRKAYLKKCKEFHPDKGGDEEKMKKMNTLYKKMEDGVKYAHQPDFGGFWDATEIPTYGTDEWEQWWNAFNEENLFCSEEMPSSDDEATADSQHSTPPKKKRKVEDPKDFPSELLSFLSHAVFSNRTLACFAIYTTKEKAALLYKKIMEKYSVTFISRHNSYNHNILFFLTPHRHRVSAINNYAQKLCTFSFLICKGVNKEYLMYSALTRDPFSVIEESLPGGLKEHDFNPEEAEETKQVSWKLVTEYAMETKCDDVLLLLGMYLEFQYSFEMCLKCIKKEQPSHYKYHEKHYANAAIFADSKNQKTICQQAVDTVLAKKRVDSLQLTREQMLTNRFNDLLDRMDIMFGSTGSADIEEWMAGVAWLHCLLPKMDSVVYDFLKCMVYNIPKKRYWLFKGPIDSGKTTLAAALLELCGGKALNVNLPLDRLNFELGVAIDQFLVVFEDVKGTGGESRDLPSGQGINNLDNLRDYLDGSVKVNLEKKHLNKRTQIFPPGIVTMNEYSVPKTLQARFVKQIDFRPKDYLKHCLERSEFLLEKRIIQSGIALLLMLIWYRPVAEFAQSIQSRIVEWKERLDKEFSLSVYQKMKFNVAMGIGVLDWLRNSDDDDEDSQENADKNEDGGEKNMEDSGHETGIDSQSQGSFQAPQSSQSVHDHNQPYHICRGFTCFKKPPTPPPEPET
Intestinal-type alkaline phosphatase (Mus musculus, UniProt P24822), sequence (P24822 whole entry): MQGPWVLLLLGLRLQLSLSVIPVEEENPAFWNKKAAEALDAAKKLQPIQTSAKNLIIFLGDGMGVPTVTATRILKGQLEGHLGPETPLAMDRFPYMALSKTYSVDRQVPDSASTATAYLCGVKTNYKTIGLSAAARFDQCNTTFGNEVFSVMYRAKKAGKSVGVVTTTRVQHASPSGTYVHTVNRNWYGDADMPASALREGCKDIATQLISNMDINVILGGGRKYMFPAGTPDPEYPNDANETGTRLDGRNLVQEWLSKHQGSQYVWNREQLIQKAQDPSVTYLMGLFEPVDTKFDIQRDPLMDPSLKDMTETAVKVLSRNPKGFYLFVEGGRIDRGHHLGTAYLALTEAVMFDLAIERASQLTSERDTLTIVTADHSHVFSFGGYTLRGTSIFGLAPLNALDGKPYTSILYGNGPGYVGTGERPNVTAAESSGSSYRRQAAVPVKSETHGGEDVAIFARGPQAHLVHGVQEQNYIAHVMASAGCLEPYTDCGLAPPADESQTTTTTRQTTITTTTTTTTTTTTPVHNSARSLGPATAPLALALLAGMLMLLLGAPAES
Melanin-concentrating hormone receptor 1, sequence (Q99705 whole entry): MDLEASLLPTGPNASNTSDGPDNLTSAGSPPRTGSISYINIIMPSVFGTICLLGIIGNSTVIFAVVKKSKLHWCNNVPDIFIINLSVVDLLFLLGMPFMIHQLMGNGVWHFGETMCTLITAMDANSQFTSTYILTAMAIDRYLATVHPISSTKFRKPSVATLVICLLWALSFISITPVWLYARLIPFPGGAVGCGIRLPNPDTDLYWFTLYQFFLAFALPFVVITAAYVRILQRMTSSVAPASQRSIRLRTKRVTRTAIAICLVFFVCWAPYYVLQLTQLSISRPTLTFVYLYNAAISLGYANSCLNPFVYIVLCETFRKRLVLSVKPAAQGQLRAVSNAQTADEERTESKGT
Genome polyprotein, sequence (P29990 2492-3391 limits assumed): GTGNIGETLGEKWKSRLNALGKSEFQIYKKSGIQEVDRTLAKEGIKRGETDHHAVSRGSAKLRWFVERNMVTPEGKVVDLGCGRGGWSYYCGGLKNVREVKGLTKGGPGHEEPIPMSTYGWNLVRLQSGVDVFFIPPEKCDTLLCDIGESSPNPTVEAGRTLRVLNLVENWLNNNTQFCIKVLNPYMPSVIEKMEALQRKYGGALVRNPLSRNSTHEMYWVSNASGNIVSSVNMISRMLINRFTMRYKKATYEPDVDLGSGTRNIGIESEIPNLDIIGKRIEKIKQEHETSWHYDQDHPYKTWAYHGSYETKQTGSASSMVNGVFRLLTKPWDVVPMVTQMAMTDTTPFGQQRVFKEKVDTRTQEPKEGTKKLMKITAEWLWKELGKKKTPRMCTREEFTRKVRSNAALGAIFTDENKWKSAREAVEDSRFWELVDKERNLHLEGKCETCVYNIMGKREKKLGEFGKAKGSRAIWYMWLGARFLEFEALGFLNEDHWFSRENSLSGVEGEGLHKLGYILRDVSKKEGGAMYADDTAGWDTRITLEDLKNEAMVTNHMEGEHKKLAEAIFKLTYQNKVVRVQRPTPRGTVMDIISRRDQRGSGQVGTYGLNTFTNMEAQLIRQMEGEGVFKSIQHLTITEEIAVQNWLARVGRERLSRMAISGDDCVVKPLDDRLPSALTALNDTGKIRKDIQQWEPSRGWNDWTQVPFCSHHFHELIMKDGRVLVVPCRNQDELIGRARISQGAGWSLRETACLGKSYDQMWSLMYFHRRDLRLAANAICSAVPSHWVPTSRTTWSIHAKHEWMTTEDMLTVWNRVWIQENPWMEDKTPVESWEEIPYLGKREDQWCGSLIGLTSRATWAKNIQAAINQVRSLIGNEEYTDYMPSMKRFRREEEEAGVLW

Consider `COc1ccc(C)cc1NC(=O)c1ccccc1NS(=O)(=O)c1ccc(Cl)s1`, for which the results for the IC50 (on Genome polyprotein; in assay [2]; in assay [3]) were 49.3 µM (active), 1.75 µM (active) and 5.82 µM (active), respectively. In addition, the AC50 (in general, the concentration giving half of the maximal activity seen) in assay [1] is 5.21 µM (active). In the assay with Vero, the CC50 (as a rule, the concentration that lowers cell viability or growth by half) was 22.6 µM (active).
On to `N#CC(c1cccc(F)c1)c1c(Cl)cnn(Cc2cccc3ccccc23)c1=O` (centres undefined), for which the IC50 in [4] and in [5] was 0.173 µM (active) in each case.
Take `CC(=O)c1ccc2c(c1)C1C=CCC1C(C(=O)O)N2` (centres undefined): the IC50 at Large T antigen is 50.6 µM (active); in assay [6] it was 78.5 µM (active); in assay [7], 50 µM (inactive); in assay [8], 5.03 µM (active); in assay [9], 6.61 µM (active); in assay [11], 2.32 µM (active). Moreover, the IC50 is 5.37 µM (active) in [12]; 5.11 µM (active) in assay [14]; 0.989 µM (active) in assay [15]; 4.9 µM (active) in assay [16]; 4.87 µM (active) in [17]; 1.45 µM (active) in assay [18]. Further, in [19], the IC50 is 10.9 µM (active). Also, the AC50 in the assay with HeLa is 277 µM (active); at ORF 73 it was 15 µM (active); in assay [13], 1.45 µM (active). Further, the EC50 (in general, the concentration giving half of the maximal effect) in assay [10] was > 100 µM (inactive).
